US20250228239A1, “MOLECULES HAVING PESTICIDAL UTILITY, AND INTERMEDIATES, COMPOSITIONS, AND PROCESSES, RELATED THERETO” (priority 2024, published 2025)
Where two headings read alike, the source gives them in different places.

What was measured:
[1] = tested on: Beet Armyworm (Spodoptera exigua, LAPHEG); assay: Bioassays on Beet Armyworm (BAW), 128-well diet tray assay; format: in vivo; conditions: Spodoptera exigua
Experimental: (§1) Certain molecules disclosed in this document were tested against BAW and CL using procedures described in the following examples. In the reporting of the results, the “BAW & CL Rating Table” was used (See Table Section).
Bioassays on BAW were conducted using a 128-well diet tray assay. One to five second instar BAW larvae were placed in each well (3 mL) of the diet tray that had been previously filled with 1 mL of artificial diet to which 50 μg/cm^2 of the test molecule (dissolved in 50 μL of 90:10 acetone-water mixture) had been applied (to each of eight wells) and then allowed to dry. Trays were covered with a clear self-adhesive cover, vented to allow gas exchange, and held at 25° C., 14:10 light-dark for five to seven days. Percent mortality was recorded for the larvae in each well; activity in the eight wells was then averaged. The results are indicated in the table entitled “Table ABC: Biological Results” (See Table Section).

[2] = tested on: Cabbage Looper (Trichoplusia ni, TRIPNI); assay: Bioassays on Cabbage Looper (CL), 128-well diet tray assay; format: in vivo; conditions: Trichoplusia ni
Experimental: as §1
Bioassays on CL were conducted using a 128-well diet tray assay. One to five second instar CL larvae were placed in each well (3 mL) of the diet tray that had been previously filled with 1 mL of artificial diet to which 50 μg/cm^2 of the test molecule (dissolved in 50 μL of 90:10 acetone-water mixture) had been applied (to each of eight wells) and then allowed to dry. Trays were covered with a clear self-adhesive cover, vented to allow gas exchange, and held at 25° C., 14:10 light-dark for five to seven days. Percent mortality was recorded for the larvae in each well; activity in the eight wells was then averaged. The results are indicated in the table entitled “Table ABC: Biological Results” (See Table Section).

[3] = Table ABC: Biological Results, species BAW, read-out: BAW
[4] = Table ABC: Biological Results, species CL, read-out: CL
[5] = Beet Armyworm, rating class, read-out: BAW
[6] = Cabbage Looper, rating class, read-out: CL
[7] = Beet Armyworm, Table ABC / ABC-DP rating, read-out: BAW rating
[8] = Cabbage Looper, Table ABC / ABC-DP rating, read-out: CL rating

Row | Compound | pest or weed control at 50 µg/cm2 [1, 3] | pest or weed control at 50 µg/cm2 [2, 4] | pest or weed control at 50 µg/cm2 [1, 5] | pest or weed control at 50 µg/cm2 [2, 6] | further results
1 | CC(=O)Nc1c(C)ccc(NC(=O)c2cc(NC(=O)[C@H]3[C@H](c4cc(Cl)cc(Cl)c4)C3(Cl)Cl)ccc2Cl)c1C (relative stereo) [F1128, trans-N-(3-Acetamido-2,4-dimethylphenyl)-2-chloro-5-(2,2-dichloro-3-(3,5-dichlorophenyl)cyclopropane-1-carboxamido)benzamide] | 50 to 100% | 50 to 100% | – | – | –
2 | CC(=O)Nc1cc(NC(=O)c2cc(NC(=O)[C@H]3[C@H](c4ccc(F)c(C(F)(F)F)c4)C3(Cl)Cl)ccc2Cl)c(F)cc1F [F1539, N-(5-Acetamido-2,4-difluorophenyl)-2-chloro-5-((1R,3R)-2,2-dichloro-3-(4-fluoro-3-(trifluoromethyl)phenyl)cyclopropane-1-carboxamido)benzamide] | – | – | 50 to 100% | 50 to 100% | –
3 | O=C(Nc1ccc(F)c(NC(=O)C(F)F)c1F)c1cc(NC(=O)[C@H]2[C@H](c3ccc(Cl)c(Cl)c3)C2(Cl)Cl)ccc1F [F1491, 5-((1R,3R)-2,2-Dichloro-3-(3,4-dichlorophenyl)cyclopropane-1-carboxamido)-N-(3-(2,2-difluoroacetamido)-2,4-difluorophenyl)-2-fluorobenzamide] | – | – | 50 to 100% | 50 to 100% | –
4 | COc1c(Cl)cc(NC(=O)[C@H]2[C@H](c3ccc(F)c(Cl)c3)C2(Cl)Cl)cc1C(=O)NCC(F)(F)F (relative stereo) [F2061, trans-3-Chloro-5-(2,2-dichloro-3-(3-chloro-4-fluorophenyl)cyclopropane-1-carboxamido)-2-methoxy-N-(2,2,2-trifluoroethyl)benzamide] | – | – | – | – | pest or weed control at 50 µg/cm2 [1, 7]: 50 to 100%; pest or weed control at 50 µg/cm2 [2, 8]: 50 to 100%
5 | O=C(Nc1ccc(F)cc1F)c1cc(NC(=O)[C@H]2[C@@H](c3cc(Cl)c(Cl)c(C(F)(F)F)c3)C2(Cl)Cl)ccc1Cl (relative stereo) [F1148, cis-2-Chloro-5-(2,2-dichloro-3-(3,4-dichloro-5-(trifluoromethyl)phenyl)cyclopropane-1-carboxamido)-N-(2,4-difluorophenyl)benzamide] | 50 to 100% | 50 to 100% | – | – | –
6 | CC(=O)Nc1ccc(F)c(NC(=O)c2cc(NC(=O)[C@H]3[C@H](c4ccc(Cl)c(Cl)c4)C3(Cl)Cl)cc(F)c2F)c1F [F1575, N-(3-Acetamido-2,6-difluorophenyl)-5-((1R,3R)-2,2-dichloro-3-(3,4-dichlorophenyl)cyclopropane-1-carboxamido)-2,3-difluorobenzamide] | – | – | 50 to 100% | 50 to 100% | –
7 | Cc1cc(NC(=O)[C@H]2[C@H](c3ccc(Cl)c(Cl)c3)C2(Cl)Cl)cc(C(=O)Nc2c(F)ccc(N)c2F)c1Cl [F1426, N-(3-Amino-2,6-difluorophenyl)-2-chloro-5-((1R,3R)-2,2-dichloro-3-(3,4-dichlorophenyl)cyclopropane-1-carboxamido)-3-methylbenzamide] | – | – | 50 to 100% | 50 to 100% | –
8 | O=C(NCC(F)(F)F)c1cc(NC(=O)[C@H]2[C@H](c3ccc(F)c(Cl)c3)C2(Cl)Cl)cc(F)c1Cl (relative stereo) [F2034, trans-2-Chloro-5-(2,2-dichloro-3-(3-chloro-4-fluorophenyl)cyclopropane-1-carboxamido)-3-fluoro-N-(2,2,2-trifluoroethyl)benzamide] | – | – | – | – | pest or weed control at 50 µg/cm2 [1, 7]: 50 to 100%; pest or weed control at 50 µg/cm2 [2, 8]: 50 to 100%
9 | O=C(Nc1c(F)ccc(NC(=O)C(F)F)c1F)c1cc(NC(=O)[C@H]2[C@H](c3cc(Cl)c(Cl)c(Cl)c3)C2(Cl)Cl)cc(F)c1Cl [F1343, 2-Chloro-5-((1R,3R)-2,2-dichloro-3-(3,4,5-trichlorophenyl)cyclopropane-1-carboxamido)-N-(3-(2,2-difluoroacetamido)-2,6-difluorophenyl)-3-fluorobenzamide] | 50 to 100% | 50 to 100% | – | – | –
10 | O=C(Nc1ccc(F)c(NC(=O)C2(C(F)(F)F)CC2)c1F)c1cc(NC(=O)[C@H]2[C@H](c3ccc(Cl)c(Cl)c3)C2(Cl)Cl)ccc1Cl [F1662, 2-Chloro-5-((1R,3R)-2,2-dichloro-3-(3,4-dichlorophenyl)cyclopropane-1-carboxamido)-N-(2,4-difluoro-3-(1-(trifluoromethyl)cyclopropane-1-carboxamido)phenyl)benzamide] | – | – | 50 to 100% | 50 to 100% | –
11 | O=C(Nc1ccc(Br)cc1F)c1cc(NC(=O)[C@H]2[C@H](c3cc(Cl)cc(Cl)c3)C2(Cl)Cl)ccc1Cl (relative stereo) [F1306, trans-N-(4-Bromo-2-fluorophenyl)-2-chloro-5-(2,2-dichloro-3-(3,5-dichlorophenyl)cyclopropane-1-carboxamido)benzamide] | 50 to 100% | 50 to 100% | – | – | –
12 | Nc1c(F)ccc(NC(=O)c2cc(NC(=O)[C@H]3[C@@H](c4cc(F)c(Cl)c(C(F)(F)F)c4)C3(Cl)Cl)ccc2Cl)c1F (relative stereo) [F1168, cis-N-(3-Amino-2,4-difluorophenyl)-2-chloro-5-(2,2-dichloro-3-(4-chloro-3-fluoro-5-(trifluoromethyl)phenyl)cyclopropane-1-carboxamido)benzamide] | 50 to 100% | 50 to 100% | – | – | –
13 | O=C(Nc1c(F)ccc(NC(=O)C(F)(F)F)c1F)c1cc(NC(=O)[C@H]2[C@H](c3cc(Cl)c(Cl)c(Cl)c3)C2(Cl)Cl)cc(F)c1F [F1588, 5-((1R,3R)-2,2-Dichloro-3-(3,4,5-trichlorophenyl)cyclopropane-1-carboxamido)-N-(2,6-difluoro-3-(2,2,2-trifluoroacetamido)phenyl)-2,3-difluorobenzamide] | – | – | 50 to 100% | 50 to 100% | –
14 | O=C(Nc1c(F)ccc(NC(=O)c2cc(NC(=O)[C@H]3[C@H](c4ccc(F)c(C(F)(F)F)c4)C3(Cl)Cl)ccc2Cl)c1F)c1ccc(F)cc1 [F1204, 2-chloro-5-((1R,3R)-2,2-dichloro-3-(4-fluoro-3-(trifluoromethyl)phenyl)cyclopropane-1-carboxamido)-N-(2,4-difluoro-3-(4-fluorobenzamido)phenyl)benzamide] | 50 to 100% | 50 to 100% | – | – | –
15 | O=C(Nc1cc(NC(=O)C(F)F)c(F)cc1F)c1cc(NC(=O)[C@H]2[C@H](c3ccc(F)c(C(F)(F)F)c3)C2(Cl)Cl)ccc1Cl [F1540, 2-Chloro-5-((1R,3R)-2,2-dichloro-3-(4-fluoro-3-(trifluoromethyl)phenyl)cyclopropane-1-carboxamido)-N-(5-(2,2-difluoroacetamido)-2,4-difluorophenyl)benzamide] | – | – | 50 to 100% | 50 to 100% | –
16 | O=C(Nc1ccc(F)c(NC(=O)[C@H]2CCCN2)c1F)c1cc(NC(=O)[C@H]2[C@H](c3ccc(Cl)c(Cl)c3)C2(Cl)Cl)ccc1Cl [F1663, (R)—N-(3-(2-Chloro-5-((1R,3R)-2,2-dichloro-3-(3,4-dichlorophenyl)cyclopropane-1-carboxamido)benzamido)-2,6-difluorophenyl)pyrrolidine-2-carboxamide] | – | – | 50 to 100% | 50 to 100% | –
17 | Nc1c(F)ccc(NC(=O)c2c(F)ccc(NC(=O)[C@H]3[C@H](c4ccc(F)c(Cl)c4)C3(Cl)Cl)c2F)c1F (relative stereo) [F1111, trans-N-(3-Amino-2,4-difluorophenyl)-3-(2,2-dichloro-3-(3-chloro-4-fluorophenyl)cyclopropane-1-carboxamido)-2,6-difluorobenzamide] | 50 to 100% | 50 to 100% | – | – | –
18 | CC(=O)Nc1cc(NC(=O)c2cc(NC(=O)[C@H]3[C@H](c4cc(Cl)c(Cl)c(Cl)c4)C3(Cl)Cl)cc(C)c2Cl)c(F)cc1F [F1547] | – | – | 50 to 100% | 50 to 100% | –
19 | Cc1cc(NC(=O)[C@H]2[C@H](c3ccc(Cl)c(Cl)c3)C2(Cl)Cl)cc(C(=O)Nc2ccc(F)c(NC(=O)C(F)(F)F)c2F)c1Cl [F1485, 2-Chloro-5-((1R,3R)-2,2-dichloro-3-(3,4-dichlorophenyl)cyclopropane-1-carboxamido)-N-(2,4-difluoro-3-(2,2,2-trifluoroacetamido)phenyl)-3-methylbenzamide] | – | – | 50 to 100% | 50 to 100% | –
20 | O=C(Nc1ccc(Cl)c(NC(=O)C(F)(F)F)c1)c1cc(NC(=O)[C@H]2[C@H](c3ccc(F)c(Cl)c3)C2(Cl)Cl)ccc1Cl (relative stereo) [F1366, trans-2-Chloro-N-(4-chloro-3-(2,2,2-trifluoroacetamido)phenyl)-5-(2,2-dichloro-3-(3-chloro-4-fluorophenyl)cyclopropane-1-carboxamido)benzamide] | 50 to 100% | 50 to 100% | – | – | –
